Columns and labels:
mice = assay: Motor activity in mice (exploratory activity in locomotion cage); format: in vivo; design: key to Motor Activity: +: increase; -: decrease; 0: no effect; settings: for Motor Activity: recorded for 10 minutes 1 hour after administration, compared to control groups, i.p.; for central stimulation (in words): motor activity in mice
Description: The lack of euphoric effects, that is lack of central stimulatory activity, is tested by measuring the motor activity in mice after administration of the test substance.
The exploratory activity of mice was recorded in a locomotion cage in which the movements were counted each time the animals cross-circuits an electrical current in the bottom plate. The activity was recorded for 10 minutes 1 hour after the administration of the drug. The animals were tested individually. Groups of six mice were used and the mice were only used once. The activity was expressed in percent of the activity of control groups ran simultaneously. The compounds were administered in at least four doses. The increase (+) or decrease (-) of the activity compared to control groups was determined from log dose response curves.

5-HTP response = 5-HTP response potentiation test (potentiation of behavioral syndrome after dl-5-HTP); format: in vivo, mice; settings: Mus musculus, ip; dl-5-HTP 90 mg/kg i.v.; at least five doses; probit analysis (Litchfield and Wilcoxon)
From the text: It is not possible by experimental means to induce depressions in laboratory animals. In order to evaluate a possible anti depressive effect on new substances biochemical-pharmacological test methods must be resorted to. One such method, which seems to give a good indication of the potential anti depressive effects of the test substances, is described in Europ. J. Pharmacol. 17, 107, 1972. This method involves the measurement of the potentiation of the syndromes produced by 5-hydroxytryptophan (5-HTP) in a laboratory animal.
Inhibition of the uptake of 5-HT potentiates the effects of administered 5-hydroxytryptophan (5-HTP) probably by increasing the amount of 5-HT at the receptor. Three mice are given the test drugs 1 hour (or 4, 24 hours) before dl-5-HTP, 90 mg/kg i.v. 5-HTP alone gives only a weak behavioral syndrome but in pretreated mice there is seen a characteristic behavioral syndrome, which comes within 5 minutes: tremor, lordosis, abduction of the hind-legs, head-twitches.
The absence or presence of respective syndrome is scored in groups of 10 mice. The compound was administered in at least five doses and the quantal responses were analysed by probit analysis and ED50 determined according to the method of Litchfield and Wilcoxon.

isolated mice = assay: Aggressive behavior in isolated male mice (antiaggressive activity); format: in vivo; settings: Mus musculus, ip, 5 min; i.p.; dose which reduces the aggressiveness score by 50%; 5 min test; read-out: Antiaggressive behaviour in mice ED50
Description: Potential anxiolytic activity is tested by measuring the antiaggressivity in isolated mice after administration of the test substance. In this test not amphetamine but Valium -- a well-known anxiolytic substance -- is used as a reference.
Male mice kept isolated for 3 weeks or longer develop an aggressive behavior when caged together. The method used follows that of Valzelli et al. (Europ. J. Pharmacol. 2, 144, 1967), with the exception that two mice were tested on each other. The aggressiveness was scored during a 5 min test according to the following schedule:
0 the animals show no interest in each other except occasional nosing
25 frequent vigorous nosing and tail rattling, the animals assume a fighting position and occasionally attack each other -- no more than 3-4 times in the 5 min period
50 tail rattling, powerful attacks -- no more than 10 times in the test period
75 the animals follow their partners, attacking and biting for most of the time
100 attacks over the entire period.
The animals were used for several experiments but with intervals of at least 1 week. Groups of 10 mice were used.
ED50 is the dose which reduces the aggressiveness score by 50%.

SMILES | Motor Activity (mice) | further results
CCC(N)Cc1ccc(N(C)C)cc1Cl (stereo not shown) [H 2-Cl CH3 CH3 H C2 H5] | 0 | 
CN(C)c1ccc(CC(C)(C)N)cc1.Cl.Cl [H H CH3 CH3 CH3 CH3, 4-Dimethylamino-α, α-dimethylphenethylamine dihydrochloride] | 0 | 
CC(N)Cc1ccc(Cl)cc1 (stereo not shown) [P-Chloroamphetamine, reference compound] |  | central stimulation (in words) (mice): pronounced
CC(N)Cc1ccc2c(c1)CCCN2C.Cl.Cl (stereo not shown) [H H CH3 (CH2)3 H CH3, 6-(2-Aminopropyl)-1-methyl-1,2,3,4-tetrahydroquinoline dihydrochloride] |  | ED50 (5-HTP response): 1.5 mg/kg; ED50 (isolated mice): > 5 mg/kg
CC(N)Cc1ccc(N(C)C)cc1Cl.Cl.Cl (stereo not drawn) [H 2-Cl CH3 CH3 H CH3, 2-Chloro-4dimethylamino-α-methylphenethylamine dihydrochloride] | - | 
CCN(CC)c1ccc(CC(C)N)cc1 (stereo not shown) [H H C2 H5 C2 H5 H CH3] | - | 
CC(N)Cc1ccccc1 (stereo not shown) [Amphetamine] |  | central stimulation (in words) (mice): pronounced
CC(N)Cc1c(Cl)cc(N(C)C)cc1Cl.Cl.Cl (stereo not drawn) [2-Cl 6-Cl CH3 CH3 H CH3, 2,6-Dichloro-4-dimethylamino-α-methylphenethylamine dihydrochloride] | - | 
Cc1cc(N(C)C)ccc1CC(C)N.Cl.Cl (stereo not drawn) [H 2-CH 3 CH3 CH3 H CH3, 2-Methyl-4-dimethylamino-α-methylphenethylamine dihydrochloride] | - | 

Reference: US4000280A, “Pharmaceutical compositions containing an amphetamine derivative for the alleviation of anxiety or treatment of depression” (Astra Lakemedel Aktiebolag, priority 1975, dated 1976)
